This note sets out measurements from US20090270456A1, “Novel chemical compounds” (priority 2004, published 2009).

One test deals with T1, hYAK3 (Homo sapiens, UniProt O43781).
T1 construct: GST (N); His6 (C); made in house; host or cells: baculovirus expression system in Sf9 cells
T1 sequence (O43781 124-526): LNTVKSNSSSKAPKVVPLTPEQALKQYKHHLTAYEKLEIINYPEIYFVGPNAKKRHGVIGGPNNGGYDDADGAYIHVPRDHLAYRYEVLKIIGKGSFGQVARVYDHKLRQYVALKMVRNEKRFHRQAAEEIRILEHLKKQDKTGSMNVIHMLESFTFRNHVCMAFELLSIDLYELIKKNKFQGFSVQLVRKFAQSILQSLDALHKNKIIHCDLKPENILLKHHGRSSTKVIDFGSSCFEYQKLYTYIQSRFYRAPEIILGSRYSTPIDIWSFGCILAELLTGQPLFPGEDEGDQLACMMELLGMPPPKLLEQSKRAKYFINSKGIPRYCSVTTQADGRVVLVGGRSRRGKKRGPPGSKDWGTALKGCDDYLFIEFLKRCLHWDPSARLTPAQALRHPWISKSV
Description: YAK3 scintillation proximity assay using Ser164 of myelin basic protein as the phosphoacceptor. It is filed as biochemical. Particulars: purified GST-hYak3-His6, 4 μM Ser164 peptide, 0.001 mM ATP, 2 hours room temperature; read-out: pIC50 values (converted). As for the experimental part:
YAK3 Scintillation Proximity Assays Using Ser164 of Myelin Basic Protein as the Phosphoacceptor
The source of Ser164 substrate peptide The biotinylated Ser164, S164A peptide(Biotinyl—LGGRDSRAGS*PMARR—OH), sequence derived from the C-terminus of bovine myelin basic protein (MBP) with Ser162 substituted as Ala162, was purchased from California Peptide Research Inc. (Napa, Calif.), and its purity was determined by HPLC. Phosphorylation occurs at position 164 (marked S* above). The calculated molecular mass of the peptide was 2166 dalton. Solid sample was dissolved at 10 mM in DMSO, aliquoted, and stored at −20° C. until use.
The source of hYAK3 enzyme: Glutathione-S-Transferase (GST)-hYak3-His6 containing amino acid residues 124-526 of human YAK3 (aa 124-526 of SEQ ID NO 2. in U.S. Pat. No. 6,323,318) was purified from baculovirus expression system in Sf9 cells using Glutathione Sepharose 4B column chromatography followed by Ni-NTA-Agarose column chromatography. Purity greater than 65% typically was achieved. Samples, in 50 mM Tris, 150 mM NaCl, 10% glycerol, 0.1% Triton, 250 mM imidazole, 10 mM β-mercapto ethanol, pH 8.0. were stored at −80° C. until use.
Kinase assay of purified hYAK3: Assays were performed in 96 well (Costar, Catalog No. 3789) or 384 well plates (Costar, Catalog No. 3705). […] Compounds, titrated in DMSO, were evaluated at concentrations ranging from 50 μM to 0.5 nM. […]
A general note: SPA uses beads or plates that emit light when radiolabelled molecules are held near them.

Test [1] addresses T2, casein kinase 2 alpha (CK2α) (Homo sapiens, UniProt P68400).
T2 construct: made in house; host or cells: baculovirus-based vectors in Sf21 insect cells
Kind of test: CK2α kinase assay using peptide phosphoacceptor (substrate phosphorylation, SPA). The format is biochemical. The following applies: purified CK2α (co-expressed with CK2β), 0.001 mM peptide, 0.001 mM ATP, 3 hours room temperature; read-out: pIC50 values (converted). As for the experimental part:
Compounds of the present invention were also tested for casein kinase 2 alpha (CK2α) inhibitory activity in substrate phosphorylation assays. This assay examines the ability of small molecule organic compounds to inhibit the serine phosphorylation of a peptide substrate.
Kinase Assays Using Peptide Phosphoacceptor
The biotinylated peptide (Biotin—GGRRRDDDS*DDD-OH), was purchased from Biosource International, Inc. (Camarillo, Calif.), and its purity was determined by HPLC. Phosphorylation of serine (S*) occurs under assay conditions described. The calculated molecular mass of the peptide was 1713 dalton. Solid sample was dissolved at 10 mM in DMSO, aliquoted, and stored at −20° C. until use.
Recombinant expression of casein kinase 2 alpha (CK2α), using baculovirus-based vectors in Sf21 insect cells and purified by P11 phosphocellulose (Whatman) chromatography of the clarified cell lysate, produced constitutively active enzyme. CK2α was co-expressed with CK2β. Samples were stored at −20° C. in the presence of 50% glycerol until use.
Kinase Assay of Purified CK2α:
Assays were performed in 384 well plates (Costar, Catalog No. 3705). Compounds first were delivered to the plate in one microliter DMSO, followed by reaction mix (in 40 ul volume), which contained in final concentrations 25 mM Hepes buffer, pH 7.4; […]; 150 mM NaCl; 1 mM β-mercapto ethanol; 0.0025% Tween-20; 0.001 mM ATP, 0.1 μCi of [γ-33P]ATP; purified CK2α (6 ng/assay), and 0.001 mM peptide. […]
The data for dose responses were plotted as % Inhibition, calculated with the data reduction formula 100*(1−[(U1−C2)/(C1−C2)]), versus concentration of compound, where U is the unknown value, C1 is the average control value obtained for DMSO, and C2 is the average control value obtained for 0.05M EDTA Data were fitted to the curve described by: y=((Vmax*x)/(K+x)) where Vmax is the upper asymptote and K is the IC50. The results for each compound were recorded as pIC50 calculated as follows: pIC50=−Log 10(K) in Table 2.

Molecules are shown by their SMILES.

T2 sequence (P68400 whole entry): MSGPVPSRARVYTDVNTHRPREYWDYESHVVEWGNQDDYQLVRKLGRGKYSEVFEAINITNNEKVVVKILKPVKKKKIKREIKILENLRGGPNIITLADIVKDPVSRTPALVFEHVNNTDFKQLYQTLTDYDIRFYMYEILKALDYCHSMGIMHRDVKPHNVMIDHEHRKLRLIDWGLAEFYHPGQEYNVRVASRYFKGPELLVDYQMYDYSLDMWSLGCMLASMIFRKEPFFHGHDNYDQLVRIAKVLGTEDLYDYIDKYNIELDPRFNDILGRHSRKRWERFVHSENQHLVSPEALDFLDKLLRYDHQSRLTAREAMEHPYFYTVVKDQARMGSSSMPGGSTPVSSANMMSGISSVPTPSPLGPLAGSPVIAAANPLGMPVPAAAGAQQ
T2 sequence (P67870 whole entry partner): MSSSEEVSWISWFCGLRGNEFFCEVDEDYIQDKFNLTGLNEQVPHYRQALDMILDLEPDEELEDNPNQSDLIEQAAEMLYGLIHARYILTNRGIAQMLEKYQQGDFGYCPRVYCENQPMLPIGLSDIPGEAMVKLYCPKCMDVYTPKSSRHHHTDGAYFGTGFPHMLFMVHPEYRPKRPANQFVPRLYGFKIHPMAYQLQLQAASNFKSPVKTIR

Consider `COc1ccc(-c2nc(Nc3ccccc3C(F)(F)F)c(C(=O)O)s2)cc1` [Ibd, 5-Carboxyl-2-(4-methoxyphenyl)-4-(2-trifluoromethylanilino)thiazole], for which the IC50 at hYAK3 was 102 to 1000 nM. In the case of `COc1cccc(-c2nc(Nc3ccccc3F)c(C(=O)O)s2)c1` [Ibf, 5-Carboxyl-4-(2-fluoroanilino)-2-(3-methoxyphenyl)thiazole], on hYAK3, the IC50 was 1020 to 10000 nM. Turning to `NC(=O)c1sc(-c2ccc3c(c2)CCO3)nc1Nc1ccccc1Cl` [Ieb, 4-(2-Chlorophenylamino)-2-(2,3-dihydrobenzofuran-5-yl) thiazole-5-carboxylic acid amide], the IC50 in test [1] was 1020 to 10000 nM. Still for that read-out and setting: to `COc1ccc(-c2nc(Nc3cc(C(N)=O)ccc3Cl)c(C(=O)O)s2)cc1` [Ief, 4-(5-Carbamoyl-2-chlorophenylamino)-2-(4-methoxyphenyl)thiazole-5-carboxylic acid] belongs 10.2 to 100 nM. Take `COc1ccc(-c2nc(Nc3cc(S(=O)(=O)O)ccc3Cl)c(C(=O)O)s2)cc1` [Ieg, 4-(2-Chloro-5-sulfophenylamino)-2-(4-methoxyphenyl) thiazole-5-carboxylic acid]: the IC50 in test [1] is 102 to 1000 nM.
